We go through ten compounds from US20020040018A1, “Subtype selective melatonergics” (priority 2000, published 2002).

For data set [1], the system named is Frings audiogenic seizure susceptible mice. Briefly: Audiogenic seizure susceptibility of Frings mice. It counts as in vivo. To be noted: for P.I.: Table 6, TD50/ED50.
Method: All compounds were administered i.p. Varying doses of the compounds were tested. At the predetermined time of peak anticonvulsant effect, individual mice were placed into a round Plexiglas chamber (diameter, 15 cm; height, 18 cm) pitted with an audio transducer (Model A5-ZC; FET Research & Development, Salt Lake City, Utah) and exposed to a high intensity sound stimulus (110 decibels, 11 KHz) for 25 seconds. Animals not displaying tonic forelimb or hindlimb extension were considered protected. The effect of the test compounds on motor performance was assessed by the rotorod test (Dunham and Miya, 1957). For this procedure, mice were tested for their ability to maintain balance on a rotating (6 rpm) knurled Plexiglas rod (1 inch diameter) for one minute. Mice unable to maintain balance in three successive trials during the test period were considered toxic. The median effective dose (ED50) and the median toxic dose (TD50) was calculated by probit analysis (Finney, 1971). For these studies, the dose of each test substance was varied between the limits of 0 and 100% protection and toxicity. The protective index (PI) is TD50/ED50.
The nature of the next data set: in vivo. To be noted: Frings, mouse.
A further data set addresses T1, MT2 receptor subtype (Homo sapiens, UniProt P49286).
T1 construct: host or cells: NIH-3T3 cells
T1 sequence (P49286 1-362): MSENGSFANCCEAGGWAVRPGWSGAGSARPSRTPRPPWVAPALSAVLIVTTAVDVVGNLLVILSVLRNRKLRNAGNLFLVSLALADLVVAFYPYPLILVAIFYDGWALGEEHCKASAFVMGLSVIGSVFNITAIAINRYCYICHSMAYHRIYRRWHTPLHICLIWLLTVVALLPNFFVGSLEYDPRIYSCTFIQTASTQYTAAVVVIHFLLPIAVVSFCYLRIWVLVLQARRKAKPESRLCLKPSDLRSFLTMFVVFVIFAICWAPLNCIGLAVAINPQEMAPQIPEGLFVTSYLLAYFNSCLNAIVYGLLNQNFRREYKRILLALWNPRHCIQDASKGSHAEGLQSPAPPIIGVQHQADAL
To be noted: radioligand binding, clones in NIH-3T3 cells; cited from earlier work.

For data set [2], the system named is Frings audiogenic seizure-susceptible mice. Description: Rotorod test of motor performance (toxicity) in Frings mice. The conditions noted are these: Table 6, i.p., rotorod.
Method: (§1) All compounds were administered i.p. Varying doses of the compounds were tested. […] For this procedure, mice were tested for their ability to maintain balance on a rotating (6 rpm) knurled Plexiglas rod (1 inch diameter) for one minute. Mice unable to maintain balance in three successive trials during the test period were considered toxic. […] For these studies, the dose of each test substance was varied between the limits of 0 and 100% protection and toxicity. The protective index (PI) is TD50/ED50.
Another data set has as its system rat. The conditions noted are these: cited from earlier work.
The test system of a further data set is mice. Description: Elevated platform test for phencyclidine-like behavioral effects. It counts as in vivo. The conditions noted are these: 44.5 nmol dose, control. Here is the method: The in vivo phencyclidine-like behavioral effects of CGX-031-120 is assessed by the elevated platform test as described by Evoniuk et al. (1991). The platform test is a rapid method for evaluating the behavioral effects of phencyclidine-like dissociative anesthetics in mice. […] Alternatively, as a control, a 44.5 nmol dose of MK 801 (dizocilpine) elicited 87.5% drug-induced falls from the elevated platform.

The conditions of data set [3]: Sugden's study; cited from earlier work.
For data set [4] the following is noted: Sugden's study; cited from earlier work. The source holds these as a separate data set.
The test system of a further data set is rodents. To be noted: 25 μg chronically for 13 weeks; cited from earlier work.
Data set [5] relates to children with sleep disturbances. To be noted: single dose of 5-10 mg; cited from earlier work.
Data set [6] is described as follows: Formalin model of persistent pain (Example 11). It counts as in vivo. Here is the method:
In this model, two distinct phases of nociceptive activity (paw licking) are observed. […] The second phase is caused by the release of inflammatory factors from tissue damage caused by formalin injection. This phase lasts for 30 to 40 minutes, and is a model of persistent inflammatory pain. The second phase is also predictive of analgesic drugs that will show efficacy in models of chronic and neurophathic pain. [drawing 2]

[7] abbreviates: Mus musculus, ip, Table 6, i.p., time of peak effect, read-out: ED50.
[8] abbreviates: Table 6, i.p., time of peak effect.

Read-outs that look alike come from different tables or passages of the source.

Method for in vivo: as §1

As for `CCCC(CCC)C(=O)O` [Depakote ®, reference compound], in data set [1] (setting [7]), the ED50 is 155 mg/kg. In addition, the P.I. in data set [1] was 2.6.

In the case of `O=C1NC(=O)C(c2ccccc2)(c2ccccc2)N1` [Dilantin ®, reference compound], in “in vivo” (ip), the TD50 turned out to be 41 mg/kg. Further, the ED50 in [1] (setting [7]) worked out at 3.9 mg/kg. Further, the P.I. in data set [1] came to 10.5.

In the case of `NC(=O)OCC(COC(N)=O)c1ccccc1` [Felbatol ®, reference compound], the TD50 in the data set “in vivo” (ip) was determined as 220 mg/kg. The ED50 in data set [1] (setting [7]) amounted to 10 mg/kg. This compound came in with a P.I. in [1] of 22.

`CCCC(=O)NCCc1c2n(c3ccc(OC)cc13)Cc1ccccc1-2` [IIK7, N-butanoyl-2-(2-methoxy-6H-isoindolo-[2,1a]-indol-11-yl)-ethanamine]: the “selectivity for the MT2 receptor subtype” value on MT2 receptor subtype was 140 fold.

Take `O=C1CN=C(c2ccccc2Cl)c2cc([N+](=O)[O-])ccc2N1` [Klonipin ®, reference compound]: the “TD50” value in [2] is 0.26 mg/kg. The compound also showed a P.I. in [1] of 2.6. Also, the “ED50” value in data set [1] (setting [8]) is 0.10 mg/kg.

Take `CC(=O)NCCc1c(Cc2ccccc2)[nH]c2ccccc12` [Luzindole]: the “antagonism of melatonin induced anti-nociception” value in the data set with rat (i.c.v. (Luzindole 50 & 100 μg)) is on record as “antagonized”.

Regarding `C[C@]12N[C@H](Cc3ccccc31)c1ccccc12` [MK 801, reference compound], in the data set with mice, the “drug-induced falls from the elevated platform” value amounted to 87.5%.

Consider `COc1ccc2[nH]cc(CCNC(C)=O)c2c1` [Melatonin, N-acetyl-5-methoxytryptamine], for which the “ED50 v ECS” value in data set [3] was 159 mg/kg. The anti-nociceptive effect result in the data set on rat (ip 30, 60, 120 mg/kg) is recorded as “dose-dependent anti-nociceptive effect”. The “ED50 v 3-MPA” value in data set [4] is on record as 115 mg/kg. In addition, in the data set with rodents, the “number and severity of seizures induced by PTZ” value is “reduced the number and severity of seizures”. Also, the “frequency of epileptic attacks” value in data set [5] was “positive effect”. For the same compound, the “licking time following formalin injection” value in data set [6] (both phases, 5 doses) was “dose-dependently reduced the licking time”. The “dose at which reduction of licking time reaches significance” value in [6] (phase one) was at least 100 mg/kg; in data set [6] (phase two), at least 200 mg/kg. Moreover, the TD50 in “in vivo” (intraperitoneal) came out at 363 mg/kg; in “in vivo” (ip), 342 mg/kg. For the same compound, the ED50 in data set [1] (Mus musculus, ip) was determined as 82 mg/kg; in [1] (audiogenic mouse model, read-out: ED50), 83 mg/kg.

`NC(=O)N1c2ccccc2C=Cc2ccccc21` [Tegratol ®, reference compound]: in [2], the “TD50” value turned out to be 45.4 mg/kg. This compound came in with a P.I. in data set [1] of 4.1. The median effective dose (ED50) in [1] (setting [8]) worked out at 11.2 mg/kg.

Consider `CCC1(C)CC(=O)NC1=O` (stereo not shown) [Zarontin ®, reference compound], for which the TD50 in “in vivo” (ip) amounted to 340 mg/kg. Further, in data set [1], the P.I. came out at 1.04.
